From patent publication US11160871B2, “SSTR-targeted conjugates and particles and formulations thereof” (TARVEDA THERAPEUTICS, INC., priority 2015, dated 2021)
pIC50: −log10 of the molar value. Like-named read-outs stand apart in the source and are kept apart here.

Experiments:
[1] = Allometric scaling of clearance; design: species or system human; settings: from mouse, rat and dog
[2] = tested on: NCI-H69 tumors; experiment: NCI-H69 tumor volume study, 2 doses; type: in vivo, mice
Procedure: In another study, 10 mice bearing NCI-H69 tumors were given 2 doses of Conjugate 57 at 2 mg/kg each. 9 mice bearing NCI-H69 tumors were given 2 doses of Conjugate 57 at 1.3 mg/kg each. All 10 animals dosed at 2 mg/kg had no detectable tumors at study end. Conjugate 57 More than half (5 out of 9) animals dosed at 1.3 mg/kg had no detectable tumors at study end.

[3] = Plasma pharmacokinetics; type: in vivo; settings: for Vd: read-out: Vss
Procedure: In this example, plasma pharmacokinetics of Conjugate 57 was studied in mouses, rats and dogs. Half-life, maximum plasma drug concentration (Cmax), drug clearance (CL), area under the curve time curve from time 0 to the last sampling time (AUC 0-t), and apparent volume of distribution at steady state (VSS) were measured.

[4] = molecular target: SSTR2 (Homo sapiens, UniProt P30874); experiment: SSTR2 receptor internalization in H524-MD tumor xenograft (IHC); type: in vivo; design: expressed in transfected cells
Sequence of SSTR2 (P30874 whole entry): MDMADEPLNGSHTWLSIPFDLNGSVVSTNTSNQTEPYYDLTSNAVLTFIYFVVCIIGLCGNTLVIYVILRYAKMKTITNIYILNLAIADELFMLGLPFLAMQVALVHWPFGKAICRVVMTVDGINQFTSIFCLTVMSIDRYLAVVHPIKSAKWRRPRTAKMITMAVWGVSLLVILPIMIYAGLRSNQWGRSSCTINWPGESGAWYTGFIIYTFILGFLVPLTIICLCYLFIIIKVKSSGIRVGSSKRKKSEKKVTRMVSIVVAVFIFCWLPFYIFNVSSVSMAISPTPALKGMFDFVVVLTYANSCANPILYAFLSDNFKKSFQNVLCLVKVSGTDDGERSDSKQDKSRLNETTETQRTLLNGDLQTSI
Procedure: SSTR2 receptor internalization was studied using Conjugate 57 in a highly expressing SSTR2 positive (SSTR2+) tumor xenograft: H524_MD tumor xenograft. Vehicle (0.1% Solutol/5% Mannitol), Conjugate 57 at 2 mg/kg, scrambled control (BT-984) at 2 mg/kg, and Octreotide at 1.4 mg/kg (ligand alone) were given to SSTR2+H524-MD tumor xenografts (n=3/group). Timepoints—0 hr (Vehicle), 15 mins, 1 hr, 4 hr, 24 hr and 72 hrs. SSTR2 scoring was done by immunohistochemistry (IHC) staining.

[5] = tested on: H69 tumors; experiment: PD studies with H69 model, PH3 and CC3 by Western blot and IHC; type: in vivo
Procedure: PD studies were carried out with H69 model to determine the in vivo response of conjugate effects on tumor cells and timing/peak response. Conjugate 57 and Conjugate 57 in nanoparticles (Conjugate 57/NP20) were tested at 2 mg/kg. NP20 formulation has been described in EXAMPLE 2. Western blot and IHC staining were carried out to measure PH3 and CC3 levels.
PH3 is correlated chromosome condensation during both mitosis and meiosis. […] As shown in Western Blot results in FIG. 18A, the peak response for PH3 occurs at 48 hours for both the conjugate and the conjugate in the nanoparticle. […] PH3 level was steady for Conjugate 57/NP20 samples.
CC3 is a marker of apoptosis. It is the executioner of apoptosis and tightly regulated. A peak in activity is seen for both Conjugate 57 and Conjugate 57/NP20 at 72 hours (FIG. 19). The activity of Conjugate 57 is stronger as compared to Conjugate 57/NP20, consistent with the PH3 results.
Cell arrest as indicated by PH3 levels peaked at 48 hr and apoptosis as indicated by CC3 levels peaked at 72 hr.

[6] = tested on: NCI-H524 small cell lung cancer model; experiment: NCI-H524 small cell lung cancer model, tumor volume and body weight; type: in vivo
Description: (§1) NCI-H524 over expresses SSTR2. […] There was minimal body weight loss and favorable toxicology.

[7] = as above; type: in vivo; settings: in vivo; read-out: maximum tolerated dose (MTD)
Description: as §1

[8] = molecular target: CYP2B6 (Homo sapiens, UniProt P20813); experiment: CYP inhibition; type: in vitro ADME
Sequence of CYP2B6 (P20813 whole entry): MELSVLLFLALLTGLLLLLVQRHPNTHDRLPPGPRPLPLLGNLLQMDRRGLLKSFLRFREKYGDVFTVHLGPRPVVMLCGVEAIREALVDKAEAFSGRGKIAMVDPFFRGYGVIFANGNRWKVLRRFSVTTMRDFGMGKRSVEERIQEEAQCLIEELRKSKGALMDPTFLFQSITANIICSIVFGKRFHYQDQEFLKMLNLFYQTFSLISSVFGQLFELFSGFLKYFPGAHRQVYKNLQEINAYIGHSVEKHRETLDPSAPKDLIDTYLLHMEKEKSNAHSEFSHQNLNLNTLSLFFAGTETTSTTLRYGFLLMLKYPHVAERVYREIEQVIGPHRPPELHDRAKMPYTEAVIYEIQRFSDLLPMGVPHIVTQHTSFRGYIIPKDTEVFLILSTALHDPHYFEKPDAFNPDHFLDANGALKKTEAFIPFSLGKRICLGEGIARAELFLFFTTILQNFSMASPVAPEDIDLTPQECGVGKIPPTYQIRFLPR
Procedure: (§2) In a further study, the potential for Conjugate 57 to inhibit cytochrome P450 (CYP) was tested across 7 isozymes of CYP enzymes. […] The data also indicate Conjugate 57 presents no risk for causing drug-drug interactions (DDIs) by inhibiting the CYP clearance of other drugs. Lack of DDIs is critical when developing combination therapies.

[9] = molecular target: CYP2C19 (Homo sapiens, UniProt P33261); experiment: CYP inhibition; type: in vitro ADME
Sequence of CYP2C19 (P33261 whole entry): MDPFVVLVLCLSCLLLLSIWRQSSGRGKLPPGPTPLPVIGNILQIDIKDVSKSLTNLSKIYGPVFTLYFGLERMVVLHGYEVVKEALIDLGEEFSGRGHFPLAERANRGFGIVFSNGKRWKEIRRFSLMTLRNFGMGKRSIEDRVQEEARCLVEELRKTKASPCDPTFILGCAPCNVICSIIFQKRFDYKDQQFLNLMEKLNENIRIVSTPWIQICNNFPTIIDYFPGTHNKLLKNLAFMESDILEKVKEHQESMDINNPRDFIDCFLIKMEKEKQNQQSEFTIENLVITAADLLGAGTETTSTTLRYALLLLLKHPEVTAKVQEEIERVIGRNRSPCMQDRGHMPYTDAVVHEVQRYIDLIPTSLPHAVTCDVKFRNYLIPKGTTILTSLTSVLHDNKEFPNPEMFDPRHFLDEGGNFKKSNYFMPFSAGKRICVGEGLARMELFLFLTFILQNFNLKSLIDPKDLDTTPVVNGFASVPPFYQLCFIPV
Procedure: as §2

[10] = molecular target: CYP1A2 (Homo sapiens, UniProt P05177); experiment: CYP inhibition; type: in vitro ADME
Sequence of CYP1A2 (P05177 whole entry): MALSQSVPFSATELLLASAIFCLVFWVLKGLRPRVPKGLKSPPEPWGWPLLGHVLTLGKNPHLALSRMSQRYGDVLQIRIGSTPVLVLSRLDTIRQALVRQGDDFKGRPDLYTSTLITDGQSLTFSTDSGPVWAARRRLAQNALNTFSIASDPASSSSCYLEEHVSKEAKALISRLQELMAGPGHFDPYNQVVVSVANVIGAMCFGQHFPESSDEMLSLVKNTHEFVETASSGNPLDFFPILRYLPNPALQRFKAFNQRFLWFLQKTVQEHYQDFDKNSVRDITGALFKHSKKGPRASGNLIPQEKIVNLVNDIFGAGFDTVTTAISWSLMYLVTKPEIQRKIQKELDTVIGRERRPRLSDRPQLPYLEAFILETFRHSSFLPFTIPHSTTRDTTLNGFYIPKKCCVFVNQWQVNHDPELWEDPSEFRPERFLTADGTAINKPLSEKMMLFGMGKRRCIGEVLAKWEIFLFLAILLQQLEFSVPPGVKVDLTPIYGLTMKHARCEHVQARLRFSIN
Procedure: as §2

[11] = molecular target: CYP2C8 (Homo sapiens, UniProt P10632); experiment: CYP inhibition; type: in vitro ADME
Sequence of CYP2C8 (P10632 whole entry): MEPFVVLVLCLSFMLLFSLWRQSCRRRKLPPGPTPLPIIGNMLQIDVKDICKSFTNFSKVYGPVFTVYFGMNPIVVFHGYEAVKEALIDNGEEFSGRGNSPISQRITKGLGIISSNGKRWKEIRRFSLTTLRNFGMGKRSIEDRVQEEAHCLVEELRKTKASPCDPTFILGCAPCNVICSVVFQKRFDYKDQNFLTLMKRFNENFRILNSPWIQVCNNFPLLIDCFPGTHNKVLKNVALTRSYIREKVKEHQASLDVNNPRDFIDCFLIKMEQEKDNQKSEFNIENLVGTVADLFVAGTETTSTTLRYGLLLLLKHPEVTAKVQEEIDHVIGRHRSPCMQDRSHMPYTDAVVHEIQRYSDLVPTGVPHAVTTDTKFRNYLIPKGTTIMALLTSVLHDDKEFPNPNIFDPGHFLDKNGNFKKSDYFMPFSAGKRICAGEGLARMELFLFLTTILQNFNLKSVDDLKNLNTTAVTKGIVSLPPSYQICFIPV
Procedure: as §2

[12] = molecular target: CYP2D6 (Homo sapiens, UniProt P10635); experiment: CYP inhibition; type: in vitro ADME
Sequence of CYP2D6 (P10635 whole entry): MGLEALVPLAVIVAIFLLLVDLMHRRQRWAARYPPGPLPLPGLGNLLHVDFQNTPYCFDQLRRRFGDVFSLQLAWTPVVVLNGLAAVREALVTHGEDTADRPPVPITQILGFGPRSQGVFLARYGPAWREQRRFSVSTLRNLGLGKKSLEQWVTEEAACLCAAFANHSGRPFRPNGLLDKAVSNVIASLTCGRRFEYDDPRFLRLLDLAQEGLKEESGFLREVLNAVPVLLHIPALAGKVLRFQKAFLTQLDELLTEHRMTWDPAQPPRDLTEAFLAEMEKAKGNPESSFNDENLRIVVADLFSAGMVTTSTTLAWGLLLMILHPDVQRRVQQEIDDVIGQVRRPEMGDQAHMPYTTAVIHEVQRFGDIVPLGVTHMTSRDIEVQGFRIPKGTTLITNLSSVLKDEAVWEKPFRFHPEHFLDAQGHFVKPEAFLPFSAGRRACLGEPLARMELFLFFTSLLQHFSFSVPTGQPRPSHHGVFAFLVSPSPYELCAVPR
Procedure: as §2

[13] = molecular target: CYP2C9 (Homo sapiens, UniProt P11712); experiment: CYP inhibition; type: in vitro ADME
Sequence of CYP2C9 (P11712 whole entry): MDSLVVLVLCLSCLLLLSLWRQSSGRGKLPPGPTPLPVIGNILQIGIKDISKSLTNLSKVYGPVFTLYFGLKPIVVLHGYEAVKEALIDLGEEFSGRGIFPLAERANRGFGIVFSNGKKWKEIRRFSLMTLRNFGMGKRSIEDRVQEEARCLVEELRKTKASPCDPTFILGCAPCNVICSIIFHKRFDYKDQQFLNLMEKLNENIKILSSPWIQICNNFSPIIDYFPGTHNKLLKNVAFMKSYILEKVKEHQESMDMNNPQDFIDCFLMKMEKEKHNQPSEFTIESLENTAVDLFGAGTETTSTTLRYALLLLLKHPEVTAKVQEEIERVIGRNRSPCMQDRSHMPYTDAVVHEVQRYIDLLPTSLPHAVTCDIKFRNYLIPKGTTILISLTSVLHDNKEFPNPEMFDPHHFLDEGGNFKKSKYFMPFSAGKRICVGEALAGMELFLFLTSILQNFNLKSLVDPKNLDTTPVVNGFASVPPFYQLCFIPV
Procedure: as §2

[14] = molecular target: CYP3A4 (Homo sapiens, UniProt P08684); experiment: CYP inhibition; type: in vitro ADME
Sequence of CYP3A4 (P08684 whole entry): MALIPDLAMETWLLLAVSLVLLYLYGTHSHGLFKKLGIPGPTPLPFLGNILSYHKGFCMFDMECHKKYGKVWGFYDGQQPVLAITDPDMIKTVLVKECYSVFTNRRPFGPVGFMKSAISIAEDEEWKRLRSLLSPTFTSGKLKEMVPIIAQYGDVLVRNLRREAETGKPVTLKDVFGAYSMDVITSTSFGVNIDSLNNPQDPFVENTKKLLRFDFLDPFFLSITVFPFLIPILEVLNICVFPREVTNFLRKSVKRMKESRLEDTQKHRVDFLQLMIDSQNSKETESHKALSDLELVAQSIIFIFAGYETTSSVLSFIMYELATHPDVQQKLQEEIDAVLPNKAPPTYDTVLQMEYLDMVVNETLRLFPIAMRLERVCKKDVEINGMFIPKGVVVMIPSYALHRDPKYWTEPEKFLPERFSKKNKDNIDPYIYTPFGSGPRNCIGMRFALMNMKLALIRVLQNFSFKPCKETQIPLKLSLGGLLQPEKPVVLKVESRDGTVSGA
Procedure: as §2

[15] = tested on: NCI-H524 cells; experiment: PH3 assay of cell-cycle arrest; type: cell-based, human
Description: Results of a PH3 assay measuring effect on cell-cycle arrest that looks at phospho histone H3 (PH3) increases were shown in FIG. 2B.

[16] = tested on: NCI-H69 SCLC tumors; experiment: NCI-H69 SCLC xenografts, PH3 and CC3 after a single dose; type: in vivo, mice
Procedure: Conjugate 57 was assessed in an in vivo study with NCI-H69 SCLC xenografts model. A single 2 mg/kg dose of Conjugate 57 was administered to mice bearing NCI-H69 SCLC tumors. Levels of cell cycle arrest marker phosphohistone H3 (PH3) were measured at the periphery, middle and core of the tumors. Phosphorylated histone H3 is correlated chromosome condensation during both mitosis and meiosis. […] The biological effects from Conjugate 57 were seen deep in the tumor and distant from blood vessels. Cell death peaks at around 3 days after dosing. […] Conjugates of the present invention can rapidly and deeply penetrate tumor and can exert a prolonged effect on tumor biology.

[17] = 2 mg/kg, H524-MD tumor xenografts

COc1cc2cc(c1Cl)N(C)C(=O)C[C@H](OC(=O)[C@H](C)N(C)C(=O)CCSSC[C@H](NC(=O)[C@@H]1CSSC[C@H](NC(=O)[C@H](N)Cc3ccccc3)C(=O)N[C@@H](Cc3ccc(O)cc3)C(=O)N[C@H](Cc3c[nH]c4ccccc34)C(=O)N[C@@H](CCCCN)C(=O)N[C@@H]([C@@H](C)O)C(=O)N1)C(N)=O)[C@]1(C)O[C@H]1[C@H](C)[C@@H]1C[C@@](O)(NC(=O)O1)[C@H](OC)/C=C/C=C(\C)C2 [Conjugate 57]
clearance in human predicted by allometric scaling [1]: low clearance | animals with no detectable tumors at study end ([2]; 2 doses at 1.3 mg/kg each, 9 mice): 5 out of 9 | animals with no detectable tumors at study end ([2]; 2 doses at 2 mg/kg each, 10 mice): 10 | AUC(0-t) ([3]; Dog, 0.1 mg/kg): 0.619 µM·h | Cmax ([3]; Dog, 0.1 mg/kg): 0.73 µM | clearance ([3]; Dog, 0.1 mg/kg): 1.39 mL/min/kg | half-life ([3]; Dog, 0.1 mg/kg): 2.86 h | Vd ([3]; Dog, 0.1 mg/kg): 0.224 L/kg | AUC(0-t) ([3]; Mouse, 2 mg/kg): 7.3 µM·h | Cmax ([3]; Mouse, 2 mg/kg): 5.93 µM | clearance ([3]; Mouse, 2 mg/kg): 2.32 mL/min/kg | half-life ([3]; Mouse, 2 mg/kg): 12.2 h | Vd ([3]; Mouse, 2 mg/kg): 0.963 L/kg | AUC(0-t) ([3]; Rat, 1.5 mg/kg): 2.77 µM·h | Cmax ([3]; Rat, 1.5 mg/kg): 4.69 µM | clearance ([3]; Rat, 1.5 mg/kg): 4.99 mL/min/kg | half-life ([3]; Rat, 1.5 mg/kg): 8.07 h | Vd ([3]; Rat, 1.5 mg/kg): 0.594 L/kg | SSTR2 internalization distribution of staining [4, 17]: significantly different results from BT-984 and naïve at 4 hr, 24 hr, and 72 hours | SSTR2 receptor internalization intensity of staining [4, 17]: significantly different results from scrambled peptide version of compound 57 (BT-984) and naïve at 1 hr, 4 hr, and 72 hours | SSTR2 internalization compared with octreotide ([4]; Conjugate 57 2 mg/kg, Octreotide 1.4 mg/kg): caused more SSTR2 internalization than octreotide alone | time of PH3 signal peak, IHC ([5]; 2 mg/kg): 48 h | time of peak in CC3 activity ([5]; 2 mg/kg): 72 h | time of peak response for PH3, Western Blot ([5]; 2 mg/kg): 48 h | time of peak of apoptosis as indicated by CC3 levels (fold change, FIG. 21) ([5]; H69): 72 h | time of peak of cell arrest as indicated by PH3 levels (fold change, FIG. 21) ([5]; H69): 48 h | tumor response (mean tumor volume) ([6]; 2 mg/kg (MTD) and 1 mg/kg): complete tumor regressions | tolerability (mean body weight change) ([6]; in vivo): well tolerated | MTD [7]: 2 mg/kg | pIC50 [8]: < 5.00 | pIC50 [9]: < 5.00 | pIC50 [10]: < 5.00 | pIC50 [11]: < 5.00 | pIC50 [12]: < 5.00 | pIC50 [13]: < 5.00 | pIC50 ([14]; CYP3A4 Midazolam): < 5.00 | pIC50 ([14]; CYP3A4 Testosterone): < 5.00 | shift in PH3 assay on competition with octreotide [15]: 2.6 fold | PH3 levels at periphery, middle and core of the tumors ([16]; single 2 mg/kg dose): Elevated levels of PH3 are seen at all depths of the tumor through 72 h | time of peak cell death (cleaved caspase-3) ([16]; single dose of 2 mg/kg): around 3 days
